From US20160222056A1, “SUBSTITUTED PHENYLALANINE DERIVATIVES” (BAYER PHARMA AKTIENGESELLSCHAFT, priority 2013, published 2016) come the findings set out here.

Counter-ions that a name gives are not always drawn. Like-named read-outs stand apart in the source and are kept apart here.

One experiment concerns the target T1, human factor XIa (Homo sapiens, UniProt P03951).
T1 construct: purchased Kordia
The experiment can be described thus: Measurement of FXIa inhibition (fluorogenic peptide substrate). The format is biochemical. The method, then: To determine the factor XIa inhibition of the substances according to the invention, a biochemical test system is used which utilizes the reaction of a peptidic factor XIa substrate to determine the enzymatic activity of human factor XIa. Here, factor XIa cleaves from the peptic factor XIa substrate the C-terminal aminomethylcoumarin (AMC), the fluorescence of which is measured. The determinations are carried out in microtitre plates.
Test substances are dissolved in dimethyl sulphoxide and serially diluted in dimethyl sulphoxide (3000 μM to 0.0078 μM; resulting final concentrations in the test: 50 μM to 0.00013 μM). In each case 1 μl of the diluted substance solutions are placed into the wells of white microtitre plates from Greiner (384 wells). Subsequently, the following are added successively: 20 μl of assay buffer (50 mmol/1 Tris buffer pH 7.4; 100 mmol/1 sodium chloride; 5 mmol/1 calcium chloride; 0.1% bovine serum albumin) and 20 μl of factor XIa from Kordia (0.45 nM in assay buffer). After 15 min of incubation, the enzyme reaction is started by addition of 20 μl of the factor XIa substrate Boc-Glu(OBzl)-Ala-Arg-AMC dissolved in assay buffer (10 μM in assay buffer) from Bachem, the mixture is incubated at room temperature (22° C.) for 30 min and fluorescence is then measured (excitation: 360 nm, emission: 460 nm). The measured emissions of the test batches with test substance are compared to those of control batches without test substance (only dimethyl sulphoxide instead of test substance in dimethyl sulphoxide), and the IC50 values are calculated from the concentration/activity relationships.

A further experiment concerns human and animal plasma. The experiment is described as follows: Anticoagulatory activity: activated partial thromboplastin time (aPTT) in plasma. The format is biochemical. Particulars: in vitro in plasma, C.K. Prest kit, 37° C. for 3 minutes; plasma species of Table B not stated. The procedure:
The anticoagulatory activity of the test substances is determined in vitro in human and animal plasma (for example mouse, rat, rabbit, pig and dog plasma). To this end, blood is drawn off in a mixing ratio of sodium citrate/blood of 1:9 using a 0.11 molar sodium citrate solution as receiver. Immediately after the blood has been drawn off, it is mixed thoroughly and centrifuged at about 4000 g for 15 minutes. The supernatant is pipetted off.
The activated partial thromboplastin time (aPTT) is determined in the presence of varying concentrations of test substance or the corresponding solvent using a commercial test kit (C.K. Prest from Diagnostica Stago). The test compounds are incubated with the plasma and the PTT reagent (cephalin, kaolin) at 37° C. for 3 minutes. Coagulation is then started by addition of 25 mM aqueous calcium chloride, and the time when coagulation occurs is determined. The concentration of test substance which brings about a 1.5-fold extension of the aPTT is determined.

Setting [1] is: human factor XIa from Kordia, substrate Boc-Glu(OBzl)-Ala-Arg-AMC, 30 min at 22° C., read-out: IC50 (FXIa inhibition).

T1 sequence (P03951 388-625 limits assumed): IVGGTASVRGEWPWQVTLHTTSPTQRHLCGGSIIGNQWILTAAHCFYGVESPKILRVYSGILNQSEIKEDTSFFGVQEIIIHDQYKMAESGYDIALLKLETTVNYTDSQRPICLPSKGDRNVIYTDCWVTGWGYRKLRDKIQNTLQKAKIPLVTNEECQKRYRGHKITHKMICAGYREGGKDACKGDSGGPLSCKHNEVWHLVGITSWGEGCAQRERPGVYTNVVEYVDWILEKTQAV
T1 sequence (P03951 19-387 partner limits assumed): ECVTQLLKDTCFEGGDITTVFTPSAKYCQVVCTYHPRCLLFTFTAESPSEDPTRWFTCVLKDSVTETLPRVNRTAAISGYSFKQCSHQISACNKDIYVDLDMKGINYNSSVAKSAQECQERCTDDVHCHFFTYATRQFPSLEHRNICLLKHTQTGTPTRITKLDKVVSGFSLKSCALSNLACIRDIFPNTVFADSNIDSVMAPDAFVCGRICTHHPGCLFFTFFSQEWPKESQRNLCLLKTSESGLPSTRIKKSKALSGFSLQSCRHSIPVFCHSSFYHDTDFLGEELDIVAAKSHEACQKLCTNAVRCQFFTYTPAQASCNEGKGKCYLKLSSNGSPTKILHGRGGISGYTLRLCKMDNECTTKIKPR

As for `Cc1cc(C(=O)NC2CCNCC2)ncc1-c1ccc(C[C@H](NC(=O)[C@H]2CC[C@H](CN)CC2)C(=O)Nc2ccc(-c3nnn[nH]3)cc2)cc1` [Example 5, N-alpha-{[trans-4-(Aminomethyl)cyclohexyl]carbonyl}-4-[4-methyl-6-(piperidin-4-ylcarbamoyl)pyridin-3-yl]-N-[4-(1H-tetrazol-5-yl)phenyl]-L-phenylalaninamide hydrochloride], the IC50 on human factor XIa (setting [1]) is 1.9 nM. Besides, in the experiment on human and animal plasma, the “aPTT (concentration of test substance which brings about a 1.5-fold extension of the aPTT)” value amounted to 0.04 µmol/L.
For `Cc1cc(C(=O)N2CC(C)NC(C)C2)ncc1-c1ccc(C[C@H](NC(=O)C2CCC(CN)CC2)C(=O)Nc2ccc(-c3nnn[nH]3)cc2)cc1` (stereo partly drawn) [Example 6, N-alpha-{[trans-4-(Aminomethyl)cyclohexyl]carbonyl}-4-{6-[(3,5-dimethylpiperazin-1-yl)carbonyl]-4-methylpyridin-3-yl}-N-[4-(1H-tetrazol-5-yl)phenyl]-L-phenylalaninamide hydrochloride], on human factor XIa (setting [1]), the IC50 is 4.1 nM. Besides, the “aPTT (concentration of test substance which brings about a 1.5-fold extension of the aPTT)” value with human and animal plasma was found to be 0.04 µmol/L.
As for `CCN(CC)C1CCC(NC(=O)c2cc(C)c(-c3ccc(C[C@H](NC(=O)[C@H]4CC[C@H](CN)CC4)C(=O)Nc4ccc(-c5nnn[nH]5)cc4)cc3)cn2)CC1` (stereo partly drawn) [Example 7, N-alpha-{[trans-4-(Aminomethyl)cyclohexyl]carbonyl}-4-(6-{[4-(diethylamino)cyclohexyl]-carbamoyl}-4-methylpyridin-3-yl)-N-[4-(1H-tetrazol-5-yl)phenyl]-L-phenylalaninamide hydrochloride], on human factor XIa (setting [1]), the IC50 came out at 2.6 nM. For the same molecule, the “aPTT (concentration of test substance which brings about a 1.5-fold extension of the aPTT)” value in the experiment with human and animal plasma came out at 0.04 µmol/L.
Turning to `Cc1cc(C(=O)NC2CCNCC2F)ncc1-c1ccc(C[C@H](NC(=O)C2CCC(CN)CC2)C(=O)Nc2ccc(-c3nnn[nH]3)cc2)cc1` (stereo partly drawn) [Example 8, N-alpha-{[trans-4-(Aminomethyl)cyclohexyl]carbonyl}-4-{6-[(3-fluoropiperidin-4-yl)carbamoyl]-4-methylpyridin-3-yl}-N-[4-(1H-tetrazol-5-yl)phenyl]-L-phenylalaninamide hydrochloride], the IC50 at human factor XIa (setting [1]) came out at 2.2 nM. For the same molecule, the “aPTT (concentration of test substance which brings about a 1.5-fold extension of the aPTT)” value in the experiment on human and animal plasma was found to be 0.05 µmol/L.
On to `CCN(CC)CCCNC(=O)c1cc(C)c(-c2ccc(C[C@H](NC(=O)[C@H]3CC[C@H](CN)CC3)C(=O)Nc3ccc(-c4nnn[nH]4)cc3)cc2)cn1` [Example 9, N-alpha-{[trans-4-(Aminomethyl)cyclohexyl]carbonyl}-4-(6-{[3-(diethylamino)propyl]-carbamoyl}-4-methylpyridin-3-yl)-N-[4-(1H-tetrazol-5-yl)phenyl]-L-phenylalaninamide hydrochloride], for which the IC50 at human factor XIa (setting [1]) stood at 5.2 nM. Besides, in the experiment with human and animal plasma, the “aPTT (concentration of test substance which brings about a 1.5-fold extension of the aPTT)” value was 0.05 µmol/L.
Take `Cc1cc(C(=O)NC2CC3CCC(C2)N3)ncc1-c1ccc(CC(NC(=O)C2CCC(CN)CC2)C(=O)Nc2ccc(-c3nnn[nH]3)cc2)cc1` [Example 10, N-alpha-{[trans-4-(Aminomethyl)cyclohexyl]carbonyl}-4-{6-[(1R,5S)-8-azabicyclo[3.2.1]oct-3-ylcarbamoyl]-4-methylpyridin-3-yl}-N-[4-(1H-tetrazol-5-yl)phenyl]-L-phenylalaninamide hydrochloride]: the IC50 at human factor XIa (setting [1]) is 3 nM. In the experiment with human and animal plasma, the “aPTT (concentration of test substance which brings about a 1.5-fold extension of the aPTT)” value is 0.07 µmol/L.
On to `Cc1cc(C(=O)NC2CC3COCC(C2)N3)ncc1-c1ccc(C[C@H](NC(=O)C2CCC(CN)CC2)C(=O)Nc2ccc(-c3nnn[nH]3)cc2)cc1` (stereo partly drawn) [Example 11, N-alpha-{[trans-4-(Aminomethyl)cyclohexyl]carbonyl}-4-[4-methyl-6-(3-oxa-9-azabicyclo[3.3.1]non-7-ylcarbamoyl)pyridin-3-yl]-N-[4-(1H-tetrazol-5-yl)phenyl]-L-phenylalaninamide hydrochloride], for which, at human factor XIa (setting [1]), the IC50 came to 5.2 nM. The “aPTT (concentration of test substance which brings about a 1.5-fold extension of the aPTT)” value in the experiment with human and animal plasma was found to be 0.07 µmol/L.
For the molecule `Cc1cc(C(=O)NCCCN(C)C)ncc1-c1ccc(C[C@H](NC(=O)[C@H]2CC[C@H](CN)CC2)C(=O)Nc2ccc(-c3nnn[nH]3)cc2)cc1` [Example 12, N-alpha-{[trans-4-(Aminomethyl)cyclohexyl]carbonyl}-4-(6-{[3-(dimethylamino)propyl]-carbamoyl}-4-methylpyridin-3-yl)-N-[4-(1H-tetrazol-5-yl)phenyl]-L-phenylalaninamide hydrochloride], the IC50 at human factor XIa (setting [1]) came to 4.8 nM. Besides, the “aPTT (concentration of test substance which brings about a 1.5-fold extension of the aPTT)” value in the experiment with human and animal plasma was 0.08 µmol/L.
`Cc1cc(C(=O)N[C@H]2CC[C@H](N3CCOCC3)CC2)ncc1-c1ccc(C[C@H](NC(=O)[C@H]2CC[C@H](CN)CC2)C(=O)Nc2ccc(-c3nnn[nH]3)cc2)cc1` [Example 13, N-alpha-{[trans-4-(Aminomethyl)cyclohexyl]carbonyl}-4-(4-methyl-6-{[trans-4-(morpholin-4-yl)cyclohexyl]carbamoyl}pyridin-3-yl)-N-[4-(1H-tetrazol-5-yl)phenyl]-L-phenylalaninamide hydrochloride]: the IC50 on human factor XIa (setting [1]) stood at 0.9 nM. Further, the “aPTT (concentration of test substance which brings about a 1.5-fold extension of the aPTT)” value in the experiment on human and animal plasma was found to be 0.08 µmol/L.
`Cc1nc(C(=O)N[C@H]2CCNC2)ccc1-c1ccc(C[C@H](NC(=O)[C@H]2CC[C@H](CN)CC2)C(=O)Nc2ccc3[nH]c(=O)[nH]c3c2)cc1` [Example 14, N-alpha-{[trans-4-(Aminomethyl)cyclohexyl]carbonyl}-4-{2-methyl-6-[(3S)-pyrrolidin-3-ylcarbamoyl]pyridin-3-yl}-N-(2-oxo-2,3-dihydro-1H-benzimidazol-5-yl)-L-phenylalaninamide hydrochloride]: the IC50 on human factor XIa (setting [1]) came to 30 nM. Also, the “aPTT (concentration of test substance which brings about a 1.5-fold extension of the aPTT)” value in the experiment on human and animal plasma stood at 0.08 µmol/L.
Regarding `Cc1nc(C(=O)N[C@H]2CCNC2)ccc1-c1ccc(C[C@H](NC(=O)[C@H]2CC[C@H](CN)CC2)C(=O)Nc2ccc(-c3nn[nH]n3)cc2)cc1` [Example 15, N-alpha-{[trans-4-(Aminomethyl)cyclohexyl]carbonyl}-4-{2-methyl-6-[(3S)-pyrrolidin-3-ylcarbamoyl]pyridin-3-yl}-N-[4-(2H-tetrazol-5-yl)phenyl]-L-phenylalaninamide hydrochloride], the IC50 on human factor XIa (setting [1]) was 3.2 nM. In the experiment on human and animal plasma, the “aPTT (concentration of test substance which brings about a 1.5-fold extension of the aPTT)” value came to 0.1 µmol/L.
Take `Cc1nc(C(=O)NC2C3CNCC32)ccc1-c1ccc(C[C@H](NC(=O)[C@H]2CC[C@H](CN)CC2)C(=O)Nc2ccc(-c3nn[nH]n3)cc2)cc1` (stereo partly drawn) [Example 16, N-alpha-{[trans-4-(Aminomethyl)cyclohexyl]carbonyl}-4-[6-(3-azabicyclo[3.1.0]hex-6-ylcarbamoyl)-2-methylpyridin-3-yl]-N-[4-(2H-tetrazol-5-yl)phenyl]-L-phenylalaninamide hydrochloride]: the IC50 at human factor XIa (setting [1]) was 8.1 nM. For the same molecule, the “aPTT (concentration of test substance which brings about a 1.5-fold extension of the aPTT)” value in the experiment on human and animal plasma worked out at 0.11 µmol/L.
For `Cc1nc(C(=O)N[C@@H]2CCNC2)ccc1-c1ccc(C[C@H](NC(=O)[C@H]2CC[C@H](CN)CC2)C(=O)Nc2ccc(-c3nn[nH]n3)cc2)cc1` [Example 17, N-alpha-{[trans-4-(Aminomethyl)cyclohexyl]carbonyl}-4-{2-methyl-6-[(3R)-pyrrolidin-3-ylcarbamoyl]pyridin-3-yl}-N-[4-(2H-tetrazol-5-yl)phenyl]-L-phenylalaninamide hydrochloride], in that order: 5 nM and 0.12 µmol/L.
Turning to `Cc1nc(C(=O)N[C@@H]2CCN[C@H](C)C2)ccc1-c1ccc(C[C@H](NC(=O)[C@H]2CC[C@H](CN)CC2)C(=O)Nc2ccc(-c3nn[nH]n3)cc2)cc1` [Example 18, N-alpha-{[trans-4-(Aminomethyl)cyclohexyl]carbonyl}-4-(2-methyl-6-{[(2R,4R)-2-methylpiperidin-4-yl]carbamoyl}pyridin-3-yl)-N-[4-(2H-tetrazol-5-yl)phenyl]-L-phenylalaninamide hydrochloride], the IC50 against human factor XIa was determined as 4.5 nM. In addition, the “aPTT (concentration of test substance which brings about a 1.5-fold extension of the aPTT)” value in the experiment on human and animal plasma is 0.12 µmol/L.
